Test results as given in patent US7462644B2, “Therapeutic agents” (AstraZeneca AB, priority 2002, dated 2008).

Molecular target: T1, human PPAR alpha (Homo sapiens, UniProt Q07869)
T1 sequence (Q07869 1-468): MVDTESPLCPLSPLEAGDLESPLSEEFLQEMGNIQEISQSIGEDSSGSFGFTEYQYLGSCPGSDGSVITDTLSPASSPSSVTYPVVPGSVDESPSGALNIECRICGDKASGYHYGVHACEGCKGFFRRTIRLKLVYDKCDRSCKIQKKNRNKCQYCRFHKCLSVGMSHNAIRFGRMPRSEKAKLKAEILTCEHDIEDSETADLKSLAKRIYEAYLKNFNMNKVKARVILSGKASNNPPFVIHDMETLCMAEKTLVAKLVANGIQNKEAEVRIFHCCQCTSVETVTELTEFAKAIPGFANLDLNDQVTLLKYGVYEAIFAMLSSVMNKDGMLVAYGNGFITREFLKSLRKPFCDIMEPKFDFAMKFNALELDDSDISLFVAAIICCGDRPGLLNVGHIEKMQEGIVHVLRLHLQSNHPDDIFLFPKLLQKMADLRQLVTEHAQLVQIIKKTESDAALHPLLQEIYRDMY
Assay: PPARα EC50 assay (assays described in WO03/051821)
Format: cell-based
Experimental: The compounds of the invention were tested in the assays described in WO03/051821.

SMILES	EC50 [nM]
CCO[C@@H](Cc1ccc(OCC(=O)N(CC)Cc2ccc(Cl)cc2)cc1)C(=O)O [Example 2, (2S)-3-(4-{2-[(4-Chlorobenzyl)(ethyl)amino]-2-oxoethoxy}phenyl)-2-ethoxypropanoic Acid]	3
CCCCN(Cc1ccc(C(F)(F)F)cc1F)C(=O)COc1ccc(C[C@H](OCC)C(=O)O)cc1 [Example 1, (2S)-3-[4-(2-{Butyl[2-fluoro-4-(trifluoromethyl)benzyl]amino}-2-oxoethoxy)phenyl]-2-ethoxy propanoic Acid]	1

Other lines, results leading:

EC50 [nM]	SMILES
3	CCO[C@@H](Cc1ccc(OCC(=O)N(CC)Cc2ccc(OC(F)(F)F)cc2)cc1)C(=O)O [Example 3]
3	CCCCN(Cc1ccc(C(F)(F)F)cc1)C(=O)COc1ccc(C[C@H](OCC)C(=O)O)cc1 [Example 5]
5	CCO[C@@H](Cc1ccc(OCC(=O)N(CC)Cc2ccc(C(F)(F)F)cc2)cc1)C(=O)O [Example 4, (2S)-2-Ethoxy-3-[4-(2-{ethyl[4-(trifluoromethyl)benzyl]amino}-2-oxoethoxy)phenyl]propanoic Acid]
